Results reported in the supplement of paper PMC10627819.

Tests used:
S. pneumoniae D39V [1] = experiment: fitness (endpoint OD595 vs no drug) (fraction); higher = more growth
Procedure, shortened: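 Bacterial growth was followed in 384-well plates seeded at OD595 0.01, with 30 µl per well, or 55 µl for S. pneumoniae, in TSB, LB Lennox or CY at 37 °C. OD595 was read every 30 min for 14 h, and each reading had the first reading subtracted as background. Fitness is the background-corrected optical density at entry into stationary phase divided by the robust mean of the no-drug control wells. This ratio is capped at 1.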

S. pneumoniae D39V [2] = experiment: Bliss interaction score (quartile over a dose matrix) (fitness difference); higher = more antagonism (negative = synergy)
Procedure, shortened: (§1)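 Each plate was normalised to the robust mean of its own no-drug wells, using OD595 at entry into stationary phase, with values capped at 1. This normalised growth is the fitness value. The Bliss score is the difference between observed and product-expected fitness, with single-drug fitness inferred from the combination data and quartiles taken over technical, biological and donor/recipient replicates.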

S. aureus DSM 20231 = experiment: as above
Procedure, shortened: as §1

B. subtilis 168 = experiment: as above
Procedure, shortened: as §1

S. aureus Newman = experiment: as above
Procedure, shortened: as §1
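Wherever Bliss interaction score (quartile over a dose matrix) is given: first quartile when negative (synergy) and third quartile when positive (antagonism).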

CC[C@H]1OC(=O)[C@H](C)[C@@H](O[C@H]2C[C@@](C)(OC)[C@@H](O)[C@H](C)O2)[C@H](C)[C@@H](O[C@@H]2O[C@H](C)C[C@H](N(C)C)[C@H]2O)[C@](C)(OC)C[C@@H](C)C(=O)[C@H](C)[C@@H](O)[C@]1(C)O [Clarithromycin] + C[n+]1ccc(-c2cc[n+](C)cc2)cc1 [Paraquat]
fitness, S. pneumoniae D39V [1], one replicate
Conditions	first compound 0.007812 µg/mL	first compound 0.01562 µg/mL	first compound 0.03125 µg/mL	first compound 0.0625 µg/mL	first compound 0.125 µg/mL	first compound 0.25 µg/mL
partner 1.5 µg/mL	0.899	0.836	0.603	0.771	0.597	0.274
partner 3 µg/mL	0.918	0.871	0.62	0.788	0.684	0.324
partner 6 µg/mL	0.909	0.816	0.657	0.837	0.708	0.345

fitness, S. pneumoniae D39V [1]
Conditions	first compound 0.07 µg/mL	first compound 0.14 µg/mL	first compound 0.28 µg/mL
partner 1.5 µg/mL	0.171	0.129	0.0703
partner 3 µg/mL	0.171	0.103	0.0937
partner 6 µg/mL	0.164	0.126	0.0698

Conditions	Bliss interaction score
B. subtilis 168	-0.0322
S. aureus DSM 20231	-0.0525
S. aureus Newman	-0.0377
S. pneumoniae D39V [2]	0.0803

C[C@@H](O)[C@H]1C(=O)N2C(C(=O)O)=C(SCCNC=N)C[C@H]12 [Imipenem] + C[n+]1ccc(-c2cc[n+](C)cc2)cc1 [Paraquat]
fitness, S. pneumoniae D39V [1], one replicate
Conditions	first compound 0.005 µg/mL	first compound 0.01 µg/mL	first compound 0.02 µg/mL
partner 1.5 µg/mL	0.991	0.997	≥ 1
partner 3 µg/mL	0.994	0.996	≥ 1
partner 6 µg/mL	≥ 1	≥ 1	0.998

fitness, S. pneumoniae D39V [1]
Conditions	first compound 0.0065 µg/mL	first compound 0.013 µg/mL	first compound 0.026 µg/mL
partner 1.5 µg/mL	0.97	0.983	–
partner 3 µg/mL	0.968	0.969	0.939
partner 6 µg/mL	0.926	0.799	0.847

Conditions	Bliss interaction score
B. subtilis 168	-0.0424
S. aureus DSM 20231	0.0307
S. aureus Newman	0.0426
S. pneumoniae D39V [2]	0.0638

C[C@@H](O)[C@H]1C(=O)N2C(C(=O)O)=C(SCCNC=N)C[C@H]12 [Imipenem] + CN[C@H](CC(C)C)C(=O)N[C@H]1C(=O)N[C@@H](CC(N)=O)C(=O)N[C@H]2C(=O)N[C@H]3C(=O)N[C@H](C(=O)N[C@H](C(=O)O)c4cc(O)cc(O)c4-c4cc3ccc4O)[C@H](O)c3ccc(c(Cl)c3)Oc3cc2cc(c3O[C@@H]2O[C@H](CO)[C@@H](O)[C@H](O)[C@H]2O[C@H]2C[C@](C)(N)[C@H](O)[C@H](C)O2)Oc2ccc(cc2Cl)[C@H]1O [Vancomycin]
fitness, S. pneumoniae D39V [1]
Conditions	first compound 0.005 µg/mL	first compound 0.0065 µg/mL	first compound 0.01 µg/mL	first compound 0.013 µg/mL	first compound 0.02 µg/mL	first compound 0.026 µg/mL
partner 0.03125 µg/mL	0.991	–	0.973	–	0.958	–
partner 0.0625 µg/mL	0.943	–	0.928	–	0.922	–
partner 0.125 µg/mL	0.783	0.769	0.767	0.798	0.76	0.817
partner 0.25 µg/mL	–	0.0266	–	0.0839	–	0.0574
partner 0.5 µg/mL	–	0.0186	–	0.0324	–	0.0486

Conditions	Bliss interaction score
B. subtilis 168	-0.0736
S. aureus DSM 20231	0.0423
S. aureus Newman	-0.0669
S. pneumoniae D39V [2]	-0.184

CCC[C@@H]1C[C@@H](C(=O)N[C@@H]([C@H]2O[C@H](SC)[C@H](O)[C@@H](O)[C@H]2O)[C@@H](C)O)N(C)C1 [Lincomycin] + O=C1CN(/N=C/c2ccc([N+](=O)[O-])o2)C(=O)N1 [Nitrofurantoin]
fitness, S. pneumoniae D39V [1]
Conditions	first compound 0.2 µg/mL	first compound 0.215 µg/mL	first compound 0.4 µg/mL	first compound 0.43 µg/mL	first compound 0.8 µg/mL	first compound 0.86 µg/mL
partner 1.285 µg/mL	0.718	–	0.677	–	0.281	–
partner 2 µg/mL	–	0.753	–	0.681	–	0.392
partner 2.57 µg/mL	0.775	–	0.716	–	0.266	–
partner 4 µg/mL	–	0.763	–	0.7	–	0.358
partner 8 µg/mL	–	0.711	–	0.381	–	0.141

S. pneumoniae D39V [1], partner 5.14 µg/mL, one replicate
Conditions	fitness
first compound 0.2 µg/mL	0.768
first compound 0.4 µg/mL	0.633
first compound 0.8 µg/mL	0.189

Conditions	Bliss interaction score
B. subtilis 168	0.163
S. aureus DSM 20231	-0.0943
S. aureus Newman	-0.101
S. pneumoniae D39V [2]	-0.118

C[C@@H](O)[C@H]1C(=O)N2C(C(=O)O)=C(SCCNC=N)C[C@H]12 [Imipenem] + CN[C@@H]1[C@H](O)[C@H](NC)[C@H]2O[C@@]3(O)C(=O)C[C@@H](C)O[C@H]3O[C@@H]2[C@H]1O [Spectinomycin]
fitness, S. pneumoniae D39V [1], one replicate
Conditions	first compound 0.005 µg/mL	first compound 0.01 µg/mL	first compound 0.02 µg/mL
partner 4 µg/mL	0.988	0.983	≥ 1
partner 8 µg/mL	0.914	0.886	0.948

fitness, S. pneumoniae D39V [1]
Conditions	first compound 0.0065 µg/mL	first compound 0.013 µg/mL	first compound 0.026 µg/mL
partner 4 µg/mL	0.895	0.878	–
partner 8 µg/mL	0.878	0.864	0.813
partner 16 µg/mL	0.788	0.828	0.888

Conditions	Bliss interaction score
B. subtilis 168	-0.0558
S. aureus DSM 20231	-0.043
S. aureus Newman	-0.0557
S. pneumoniae D39V [2]	0.0606

C[C@@H](O)[C@H]1C(=O)N2C(C(=O)O)=C(SCCNC=N)C[C@H]12 [Imipenem] + CN[C@@H]1[C@H](O[C@H]2[C@H](O[C@H]3[C@H](O)[C@@H](O)[C@H](N=C(N)N)[C@@H](O)[C@@H]3N=C(N)N)O[C@@H](C)[C@]2(O)C=O)O[C@@H](CO)[C@H](O)[C@H]1O [Streptomycin]
fitness, S. pneumoniae D39V [1], one replicate
Conditions	first compound 0.005 µg/mL	first compound 0.01 µg/mL	first compound 0.02 µg/mL
partner 2 µg/mL	≥ 1	0.955	0.988
partner 16 µg/mL	0.779	0.813	0.786

fitness, S. pneumoniae D39V [1]
Conditions	first compound 0.005 µg/mL	first compound 0.0065 µg/mL	first compound 0.01 µg/mL	first compound 0.013 µg/mL	first compound 0.02 µg/mL	first compound 0.026 µg/mL
partner 2 µg/mL	–	0.959	–	0.868	–	0.847
partner 4 µg/mL	0.965	0.923	0.986	0.903	0.97	0.886
partner 8 µg/mL	0.837	0.916	0.863	0.907	0.875	0.85

Conditions	Bliss interaction score
B. subtilis 168	0.1
S. aureus DSM 20231	-0.0295
S. aureus Newman	0.076
S. pneumoniae D39V [2]	0.0603

CC[C@H]1OC(=O)[C@H](C)[C@@H](O[C@H]2C[C@@](C)(OC)[C@@H](O)[C@H](C)O2)[C@H](C)[C@@H](O[C@@H]2O[C@H](C)C[C@H](N(C)C)[C@H]2O)[C@](C)(OC)C[C@@H](C)C(=O)[C@H](C)[C@@H](O)[C@]1(C)O [Clarithromycin] + CC(=O)NC[C@H]1CN(c2ccc(N3CCOCC3)c(F)c2)C(=O)O1 [Linezolid]
fitness, S. pneumoniae D39V [1], one replicate
Conditions	first compound 0.007812 µg/mL	first compound 0.01562 µg/mL	first compound 0.03125 µg/mL
partner 0.2 µg/mL	0.728	0.709	0.581
partner 0.4 µg/mL	0.565	0.609	0.452
partner 0.8 µg/mL	0.277	0.314	0.193

fitness, S. pneumoniae D39V [1]
Conditions	first compound 0.0625 µg/mL	first compound 0.07 µg/mL	first compound 0.125 µg/mL	first compound 0.14 µg/mL	first compound 0.25 µg/mL	first compound 0.28 µg/mL
partner 0.105 µg/mL	0.637	–	0.35	–	0.111	–
partner 0.2 µg/mL	–	0.0674	–	0.0794	–	0.0498
partner 0.21 µg/mL	0.533	–	0.269	–	0.0783	–
partner 0.4 µg/mL	–	0.0735	–	0.0846	–	0.0492
partner 0.42 µg/mL	0.326	–	0.163	–	0.101	–
partner 0.8 µg/mL	–	0.0543	–	0.0384	–	0.0345

Conditions	Bliss interaction score
B. subtilis 168	-0.0553
S. aureus DSM 20231	-0.135
S. aureus Newman	-0.119
S. pneumoniae D39V [2]	-0.0363

CC[C@H]1OC(=O)[C@H](C)[C@@H](O[C@H]2C[C@@](C)(OC)[C@@H](O)[C@H](C)O2)[C@H](C)[C@@H](O[C@@H]2O[C@H](C)C[C@H](N(C)C)[C@H]2O)[C@](C)(OC)C[C@@H](C)C(=O)[C@H](C)[C@@H](O)[C@]1(C)O [Clarithromycin] + Cc1onc(-c2ccccc2)c1C(=O)N[C@@H]1C(=O)N2[C@@H]1SC(C)(C)[C@@H]2C(=O)O [Oxacillin]
fitness, S. pneumoniae D39V [1], one replicate
Conditions	first compound 0.007812 µg/mL	first compound 0.01562 µg/mL	first compound 0.03125 µg/mL
partner 0.01 µg/mL	0.9	0.856	0.678
partner 0.02 µg/mL	0.911	0.833	0.646
partner 0.04 µg/mL	0.414	0.48	0.418

fitness, S. pneumoniae D39V [1]
Conditions	first compound 0.0625 µg/mL	first compound 0.07 µg/mL	first compound 0.125 µg/mL	first compound 0.14 µg/mL	first compound 0.25 µg/mL	first compound 0.28 µg/mL
partner 0.005 µg/mL	–	0.179	–	0.128	–	0.119
partner 0.01 µg/mL	0.564	0.185	–	0.136	0.165	0.0928
partner 0.02 µg/mL	0.54	0.182	–	0.117	0.158	0.107
partner 0.04 µg/mL	–	–	0.254	–	0.0887	–

Conditions	Bliss interaction score
B. subtilis 168	0.0227
S. aureus DSM 20231	0.0328
S. aureus Newman	-0.0384
S. pneumoniae D39V [2]	0.0844
